Test results published in patent US8771953B2, “Evaluation of the potential risk of drug induced mood disturbance and suicide: use of a dedicated platform” (Biocortech, priority 2008, dated 2014).
Like-named read-outs stand apart in the source and are kept apart here.

Legend:
ADAR1b mRNA = experiment: Q-PCR of ADAR1b mRNA expression in SH-SY5Y cells; type: cell-based; conditions: Homo sapiens, 10 micromolar, 24 hours, read-out: QPCR: RNA expresion (% of variation) ADAR1b
Description: (§1) The SH-SY5Y Human neuroblastoma cell line was purchased from ECACC (EC94030304 from the European Collection of Cell Cultures (ECACC)). The cell line SH-SY5Y is a thrice-cloned neuroblastoma, originally from SK-N-SH and first reported in 1978. A neuroblast-like subclone of SK-N-SH, named SH-SY, was subcloned as SH-SY5, which was subcloned again as SH-SY5Y (Biedler J L et al. Cancer Res. 1978; 38:3751-7). Cells were cultured in high glucose D-MEM medium (Sigma, ref D6546) supplemented with 10% dialysed FCS (PAA, ref. A15-507, lot A50708-0050), 2 mM Glutamine (Sigma, G7513) and a 1× mix of Antibiotic-Antimycotic Stabilized (Sigma, ref. A5955) at 37° C. under a humidified atmosphere of 5% CO2. The day preceeding drug or hIFNα treatment, SH-SY5Y cells were plated in 6-well plates at a density of 10^6 cells/well. One 6-well plate was used per experimental condition (concentration or treatment duration). The day after plating, culture medium was removed and cells were incubated for 24 hours with a 10 μM solution of the compound to be tested molecules or a 1000 IU/ml solution of hIFNα (PBL biomedical laboratories). For hIFNα dose-response experiment cells were incubated with 1, 10, 100, and 1000 IU/ml of hIFNα solutions. For hIFNα time-course experiment cells were treated for 24, 48, or 72 hours with a 1000 IU/ml solution of hIFNα. After the different treatments, cells were directly lysed in RLT lysis buffer and total RNA purified according to manufacturer's protocol (Qiagen, RNeasy Plus mini kit, ref. 74134). Total RNA was then reverse transcribed with Thermoscript RT-PCR system Plus Taq (Invitrogen, 11146-032) and the resulting cDNA used for CE-SSCP and quantitative real-time PCR.
(§2) In order to quantify levels of 5-HT2CR, ADAR1 and ADAR2 mRNA expression in SH-SY5Y cells or in prefrontal cortex, total blood and skin of Balb/cJ mice, first-strand cDNA was synthesized by reverse transcription and subjected to TaqMan quantitative real-time PCR analysis (Applied Biosystems). All probes and primers used for the quantitative PCRs were from Applied Bio systems (Gene Expression Assays, Assay-On-Demand) (see Table 1, Applied Biosystems primers and probes references): […]
(§3) Human GAPDH (product no. 4326317E; Applied Biosystems) or mouse GAPDH (product no. 4352339E; Applied Biosystems) were included in each multiplex PCR as an internal control. Real-time PCR and subsequent analysis were performed with a 48-well block StepOne RT PCR system (Applied Biosystems). Quantification of target gene expression in all samples was normalized to GAPDH expression by the equation Ct (target)−Ct (GAPDH)=ΔCt, where Ct is the threshold cycle number. The mean ΔCt value of samples from untreated mice or cells was determined and used as a reference point for the samples corresponding to treated animals or cells. Differences between untreated and treated animals or cells, including individual variation were calculated by the equation (ΔCt (individual treated samples)−ΔCt (mean of untreated samples)=ΔΔCt). Changes in target gene expression (n-fold) in each sample were calculated by 2^−ΔΔCt, from which the means and standard deviations (SD) were derived.
(§4) The SH-SY5Y Human neuroblastoma cell line was purchased from ECACC. Cells were cultured in high glucose D-MEM medium (Sigma, ref. D6546) supplemented with 10% dialysed FCS (PAA, ref. A15-507, lot A50708-0050), 2 mM Glutamine (Sigma, ref. G7513) and a 1× mix of Antibiotic-Antimycotic Stabilized (Sigma, ref. A5955) at 37° C. under a humidified atmosphere of 5% CO2. The day preceeding hIFNα or drug treatment, SH-SY5Y cells were plated in 6-well plates (Corning, Multiwell Plate, 6 well, Corning CellBIND Surface, ref 3335) at a density of 5; 7 or 9·10^6 cells/well for a 72-, 48- or 24-hour treatment respectively. Six or eight wells of 6-well plates were used per experimental condition (control, concentration or treatment duration).

5-HT2cR mRNA = experiment: Editing profile of 5-HT2cR mRNA isoforms by CE-SSCP (nested PCR) in SH-SY5Y cells; enzyme activity indexes worked out from the profile; type: cell-based, human; conditions: for activation at 10 µM: Homo sapiens, SH-SY5Y; for alteration of 5-HT2cR mRNA editing compared with that observed after INFα treatment (component analysis, FIG. 4): SH-SY5Y cells, 48 hours, 10 μM
ADAR1a mRNA = experiment: Q-PCR of ADAR1a mRNA expression in SH-SY5Y cells; type: cell-based; conditions: Homo sapiens, 10 micromolar, 24 hours, read-out: QPCR: RNA expresion (% of variation) ADAR1a
Description: ADAR1a RNA Expression in SH-SY5Y cells (Q-PCR, Applied TaqMan probes ref: Hs 01020780_m1).
as §1, §2, §3, §4

ADAR2 mRNA = experiment: Q-PCR of ADAR2 mRNA expression in SH-SY5Y cells; type: cell-based; conditions: Homo sapiens, 10 micromolar, 24 hours, read-out: QPCR: RNA expresion (% of variation) ADAR2
Description: as §1, §2, §3, §4

[1] = 24 h, read-out: ENZYME ACTIVIY INDEX (% of variation) ADAR1
[2] = 24 h, read-out: ENZYME ACTIVIY INDEX (% of variation) ADAR1 + 2
[3] = 24 h, read-out: ENZYME ACTIVIY INDEX (% of variation) ADAR2
[4] = 24 h, read-out: ENZYME ACTIVIY INDEX (% of variation) ADARI
[5] = 24 h, read-out: ENZYME ACTIVIY INDEX (% of variation) ADARII
[6] = 24 h, read-out: ENZYME ACTIVIY INDEX (% of variation) NE
[7] = 10 micromolar, 24 hours, read-out: ENZYME ACTIVIY INDEX (% of variation) ADAR1
[8] = 10 micromolar, 24 hours, read-out: ENZYME ACTIVIY INDEX (% of variation) ADAR1 + 2
[9] = 10 micromolar, 24 hours, read-out: ENZYME ACTIVIY INDEX (% of variation) ADAR2
[10] = 10 micromolar, 24 hours, read-out: ENZYME ACTIVIY INDEX (% of variation) ADARI
[11] = 10 micromolar, 24 hours, read-out: ENZYME ACTIVIY INDEX (% of variation) ADARII
[12] = 10 micromolar, 24 hours, read-out: ENZYME ACTIVIY INDEX (% of variation) NE

SMILES | percent change in mRNA expression at 10 µM (ADAR1b mRNA) [%] | activation at 10 µM (5-HT2cR mRNA; [1]) [%] | activation at 10 µM (5-HT2cR mRNA; [2]) [%] | activation at 10 µM (5-HT2cR mRNA; [3]) [%] | activation at 10 µM (5-HT2cR mRNA; [4]) [%] | activation at 10 µM (5-HT2cR mRNA; [5]) [%] | activation at 10 µM (5-HT2cR mRNA; [6]) [%] | % change in ADAR1a mRNA expression at 10 µM (ADAR1a mRNA) [%] | percent change in ADAR2 mRNA expression at 10 µM (ADAR2 mRNA) [%] | activation at 10 µM (5-HT2cR mRNA; [7]) [%] | activation at 10 µM (5-HT2cR mRNA; [8]) [%] | activation at 10 µM (5-HT2cR mRNA; [9]) [%] | activation at 10 µM (5-HT2cR mRNA; [10]) [%] | activation at 10 µM (5-HT2cR mRNA; [11]) [%] | activation at 10 µM (5-HT2cR mRNA; [12]) [%] | alteration of 5-HT2cR mRNA editing compared with that observed after INFα treatment (component analysis, FIG. 4) (5-HT2cR mRNA)
CCNC(C)Cc1cccc(C(F)(F)F)c1 (centres unmarked) [Fenfluramine] | 23 | 4.2 | -43.3 | 0.7 | -4.8 | -34.8 | 4.5 | 7 | 27 |  |  |  |  |  |  | 
Nc1nnc(-c2cccc(Cl)c2Cl)c(N)n1 [Lamotrigine] | -26 |  |  |  |  |  |  | -26 | -32 | 5.9 | -24.6 | -23 | 0.1 | -24.3 | 0.9 | 
NCC1(CC(=O)O)CCCCC1 [Gabapentin] | -34 | 19.2 | -28.5 | -26.7 | 10.1 | -28.1 | -8.3 | -42 | -21 |  |  |  |  |  |  | 
CC[C@@H](C(N)=O)N1CCCC1=O [Levetiracetam] | -11 |  |  |  |  |  |  | -9 | -17 | 12 | -36.6 | 10.9 | 2.8 | -27.4 | -3.1 | 
NC(=O)N1c2ccccc2C=Cc2ccccc21 [Carbamazepine] | -62 |  |  |  |  |  |  | 52 | -42 | -3 | 38.8 | 26 | 3 | 36.4 | -3.8 | 
NC(=O)OCC(COC(N)=O)c1ccccc1 [Felbamate] | -1 |  |  |  |  |  |  | -13 | 1 | 6.3 | -13.9 | -24.6 | 2.4 | -16 | -1.2 | 
CC1(C)O[C@@H]2[C@@H](CO[C@@]3(COS(N)(=O)=O)OC(C)(C)O[C@@H]23)O1 [Topiramate] | -46 |  |  |  |  |  |  | -44 | -60 | 14.4 | -19.5 | 11.4 | 8 | -13.5 | -8 | 
O=c1n(CCCN2CCN(c3cccc(Cl)c3)CC2)nc2ccccn12 [Trazodone] | -40 |  |  |  |  |  |  | -60 | 5 | 0 | 89.3 | 28.4 | 12.9 | 77.7 | 13.4 | 
Cc1c(C(=O)NN2CCCCC2)nn(-c2ccc(Cl)cc2Cl)c1-c1ccc(Cl)cc1 [Rimonabant] | -32 |  |  |  |  |  |  | -43 | -7 | 13.3 | 2.4 | -3.7 | 11.3 | 1.2 | -10.4 | similarly altered
C[C@H](NC(=O)C(C)(C)Oc1ccc(C(F)(F)F)cn1)[C@@H](Cc1ccc(Cl)cc1)c1cccc(C#N)c1 [Taranabant] |  |  |  |  |  |  |  |  |  |  |  |  |  |  |  | similarly altered
CC(C)C[C@H](CN)CC(=O)O [Pregabalin] | -43 | 2.5 | -8.7 | -6.2 | 0.4 | -8.2 | -0.1 | -33 | -36 |  |  |  |  |  |  | 
CN(C)CCCC1(c2ccc(F)cc2)OCc2cc(C#N)ccc21 (centres unmarked) [Citalopram] | -2 |  |  |  |  |  |  | -18 | 64 | -5.7 | 70.2 | 70.1 | 5.3 | 70.2 | -7.4 | 
CNCCCN1c2ccccc2CCc2ccccc21 [Desipramine] | -38 | -8.6 | 5.7 | 15.5 | -6.6 | 7.5 | 5.9 | 29 | -12 |  |  |  |  |  |  | 
NS(=O)(=O)Cc1noc2ccccc12 [Zonisamide] | -19 |  |  |  |  |  |  | -24 | -23 | 11.9 | 9.7 | -7.8 | 11.5 | 6.3 | -10.5 | 
Cc1cc2c(s1)Nc1ccccc1N=C2N1CCN(C)CC1 [Olanzapine] | 20 | -23.2 | 84.9 | 9.2 | -7.6 | 70.5 | 7 | -54 | 92 |  |  |  |  |  |  | 
